Test results from PubChem BioAssay AID248 (DTP/NCI, 2004).
“And” between values parts separate entries of the source, which are not always exact repeats. Equal values may be shown once. Inconclusive results and toxic doses are left out. No stated cut-off is given here; in the data, active means T/C of 150% or more; inactive means T/C below 125%.

Test system: L1210 leukemia ip in BDF1 mice, survival T/C
Experiment: NCI In Vivo Anticancer Drug Screen. Data for tumor model L1210 Leukemia (intraperitoneal) in B6D2F1 (BDF1) mice
Conditions: endpoint: mean survival time, higher = longer survival
Procedure, shortened: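 Value reflects the ratio of survival in compound-treated mice to survival in vehicle-treated controls, with both groups carrying the same transplanted tumor.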

[1] = dose: 50.0 mg/kg/injection, schedule: Q01DX009 (ip), vehicle: saline
[2] = dose: 100.0 mg/kg/injection, schedule: Q01DX001 (ip), vehicle: saline
[3] = dose: 200.0 mg/kg/injection, schedule: Q01DX001 (ip), vehicle: saline
[4] = dose: 400.0 mg/kg/injection, schedule: Q01DX001 (ip), vehicle: saline
[5] = dose: 5.0 mg/kg/injection, schedule: Q01DX001 (ip), vehicle: saline
[6] = dose: 10.0 mg/kg/injection, schedule: Q01DX001 (ip), vehicle: saline
[7] = dose: 20.0 mg/kg/injection, schedule: Q01DX001 (ip), vehicle: saline

Measured: T/C

CC1(C)N=C(N)N=C(N)N1c1ccc(CCC(=O)Nc2cccc(S(=O)(=O)F)c2)cc1
inactive: dose: 0.8 mg/kg/injection, schedule: Q01DX009 (ip), vehicle: saline 98 % of control | dose: 4.0 mg/kg/injection, schedule: Q01DX009 (ip), vehicle: saline 106 % of control | dose: 20.0 mg/kg/injection, schedule: Q01DX009 (ip), vehicle: saline 108 % of control | dose: 25.0 mg/kg/injection, schedule: Q#A X018 (ip), vehicle: saline 119 % of control | [1] 111 % of control | dose: 50.0 mg/kg/injection, schedule: Q#A X018 (ip), vehicle: saline 113 % of control | dose: 100.0 mg/kg/injection, schedule: Q01DX009 (ip), vehicle: saline 112 % of control and 122 % of control | dose: 100.0 mg/kg/injection, schedule: Q#A X018 (ip), vehicle: saline 88 % of control

O=P(Oc1ccccc1)(Oc1ccccc1)C(Nc1ccccc1)c1ccccc1 (stereo not given)
inactive: dose: 400.0 mg/kg/injection, schedule: Q04DX003 (ip), vehicle: saline with Tween-80 90 % of control

CC(=O)N(C)C
inactive: dose: 62.5 mg/kg/injection, schedule: Q01DX010 (ip), vehicle: saline 94 % of control and 97 % of control | dose: 125.0 mg/kg/injection, schedule: Q01DX010 (ip), vehicle: saline 105 % of control and 91 % of control | dose: 250.0 mg/kg/injection, schedule: Q01DX010 (ip), vehicle: saline 103 % of control and 91 % of control | dose: 500.0 mg/kg/injection, schedule: Q01DX001 (ip), vehicle: saline 101 % of control | dose: 500.0 mg/kg/injection, schedule: Q01DX010 (ip), vehicle: saline 100 % of control and 89 % of control | dose: 900.0 mg/kg/injection, schedule: Q01DX Z (ip), vehicle: other 106 % of control | dose: 1000.0 mg/kg/injection, schedule: Q01DX001 (ip), vehicle: saline 100 % of control | dose: 2000.0 mg/kg/injection, schedule: Q01DX001 (ip), vehicle: saline 97 % of control | dose: 3000.0 mg/kg/injection, schedule: Q01DX Z (ip), vehicle: other 87 % of control

CN(CC1CCCO1)C(=O)Nc1ccc(Cl)cc1 (stereo not given)
inactive: dose: 100.0 mg/kg/injection, schedule: Q01DX009 (ip), vehicle: carboxymethylcellulose (CMC) 107 % of control | dose: 200.0 mg/kg/injection, schedule: Q01DX009 (ip), vehicle: carboxymethylcellulose (CMC) 96 % of control | dose: 400.0 mg/kg/injection, schedule: Q01DX009 (ip), vehicle: carboxymethylcellulose (CMC) 104 % of control

NC(=O)n1cnc(N)n1
inactive: dose: 50.0 mg/kg/injection, schedule: Q01DX001 (ip), vehicle: saline 98 % of control | [2] 98 % of control | [3] 104 % of control | [4] 107 % of control

O=C(O)CC1CCN(C(=O)c2ccccc2)C(Cc2c[nH]c3ccccc23)C1O (stereo not given)
inactive: [2] 97 % of control | [3] 101 % of control | [4] 92 % of control

CNCCOC(c1ccccc1)c1ccccc1C (stereo not given)
inactive: dose: 3.12 mg/kg/injection, schedule: Q01DX009 (ip), vehicle: saline 107 % of control | [5] 103 % of control | dose: 6.25 mg/kg/injection, schedule: Q01DX009 (ip), vehicle: saline 96 % of control | [6] 100 % of control | dose: 12.5 mg/kg/injection, schedule: Q01DX009 (ip), vehicle: saline 101 % of control | [7] 105 % of control | dose: 25.0 mg/kg/injection, schedule: Q01DX009 (ip), vehicle: saline 101 % of control | dose: 25.0 mg/kg/injection, schedule: Q04DX003 (ip), vehicle: saline 94 % of control | dose: 40.0 mg/kg/injection, schedule: Q01DX001 (ip), vehicle: saline 100 % of control | [1] 106 % of control | dose: 50.0 mg/kg/injection, schedule: Q04DX003 (ip), vehicle: saline 108 % of control | dose: 80.0 mg/kg/injection, schedule: Q01DX001 (ip), vehicle: saline 103 % of control

C=CCc1ccccc1OCC(=O)O
inactive: dose: 100.0 mg/kg/injection, schedule: Q04DX002 (ip), vehicle: Klucel (hydroxypropylcellulose) (HPC) 91 % of control | dose: 200.0 mg/kg/injection, schedule: Q04DX002 (ip), vehicle: Klucel (hydroxypropylcellulose) (HPC) 95 % of control | dose: 400.0 mg/kg/injection, schedule: Q04DX002 (ip), vehicle: Klucel (hydroxypropylcellulose) (HPC) 104 % of control

CC1CC[N-]CC1.CC1CC[N-]CC1.CC1CC[N-]CC1.CC1CC[N-]CC1.[Pt+4]
inactive: dose: 0.39 mg/kg/injection, schedule: Q01DX009 (ip), vehicle: saline 100 % of control | dose: 0.39 mg/kg/injection, schedule: Q04DX003 (ip), vehicle: saline 97 % of control | dose: 0.78 mg/kg/injection, schedule: Q01DX009 (ip), vehicle: saline 92 % of control | dose: 0.78 mg/kg/injection, schedule: Q04DX003 (ip), vehicle: saline 100 % of control | dose: 1.56 mg/kg/injection, schedule: Q01DX009 (ip), vehicle: saline 94 % of control | dose: 1.56 mg/kg/injection, schedule: Q04DX003 (ip), vehicle: saline 102 % of control | dose: 3.12 mg/kg/injection, schedule: Q04DX003 (ip), vehicle: saline 96 % of control

O=[N+]([O-])C1C=CCS1(=O)=O (stereo not given)
inactive: dose: 100.0 mg/kg/injection, schedule: Q04DX003 (ip), vehicle: saline 95 % of control | dose: 200.0 mg/kg/injection, schedule: Q04DX003 (ip), vehicle: saline 96 % of control | dose: 400.0 mg/kg/injection, schedule: Q04DX003 (ip), vehicle: saline 86 % of control

CN(C)CCCNc1c2ccccc2nc2ccc(F)cc12
inactive: [5] 100 % of control | [6] 96 % of control | [7] 107 % of control

CC(CNN=C(N)N)NN=C(N)N (stereo not given)
inactive: dose: 30.0 mg/kg/injection, schedule: Q01DX Z (ip), vehicle: saline 116 % of control | dose: 60.0 mg/kg/injection, schedule: Q01DX Z (ip), vehicle: saline 100 % of control | dose: 120.0 mg/kg/injection, schedule: Q01DX Z (ip), vehicle: saline 96 % of control

NNc1nnc(-c2ccccc2)c2ccccc12
inactive: dose: 15.0 mg/kg/injection, schedule: Q01DX001 (ip), vehicle: carboxymethylcellulose (CMC) 95 % of control | dose: 30.0 mg/kg/injection, schedule: Q01DX001 (ip), vehicle: carboxymethylcellulose (CMC) 101 % of control | dose: 60.0 mg/kg/injection, schedule: Q01DX001 (ip), vehicle: carboxymethylcellulose (CMC) 100 % of control

O=C(Nc1ccc(Cl)c(Cl)c1)c1ccco1
inactive: dose: 12.5 mg/kg/injection, schedule: Q01DX009 (ip), vehicle: saline with Tween-80 92 % of control and 93 % of control | dose: 25.0 mg/kg/injection, schedule: Q01DX001 (ip), vehicle: saline with Tween-80 97 % of control | dose: 25.0 mg/kg/injection, schedule: Q04DX002 (ip), vehicle: saline with Tween-80 116 % of control and 91 % of control | dose: 25.0 mg/kg/injection, schedule: Q04DX003 (ip), vehicle: saline with Tween-80 96 % of control | dose: 50.0 mg/kg/injection, schedule: Q01DX001 (ip), vehicle: saline with Tween-80 103 % of control | dose: 50.0 mg/kg/injection, schedule: Q04DX002 (ip), vehicle: saline with Tween-80 116 % of control and 91 % of control | dose: 50.0 mg/kg/injection, schedule: Q04DX003 (ip), vehicle: saline with Tween-80 93 % of control | dose: 100.0 mg/kg/injection, schedule: Q01DX001 (ip), vehicle: saline with Tween-80 109 % of control | dose: 100.0 mg/kg/injection, schedule: Q01DX009 (ip), vehicle: saline with Tween-80 93 % of control | dose: 100.0 mg/kg/injection, schedule: Q04DX003 (ip), vehicle: saline with Tween-80 95 % of control

CCCCOC(=O)C1C=C(N)CCC1 (stereo not given)
inactive: dose: 100.0 mg/kg/injection, schedule: Q01DX001 (ip), vehicle: carboxymethylcellulose (CMC) 92 % of control | dose: 200.0 mg/kg/injection, schedule: Q01DX001 (ip), vehicle: carboxymethylcellulose (CMC) 89 % of control | dose: 400.0 mg/kg/injection, schedule: Q01DX001 (ip), vehicle: carboxymethylcellulose (CMC) 94 % of control
